Reference: patent US20250296938A1, “Compounds that Interact with the Ras Superfamily for the Treatment of Cancers, Inflammatory Diseases, Rasopathies, and Fibrotic Disease” (SHY Therapeutics, LLC, priority 2018, published 2025)

How the values were obtained:
MAPK phosphorylation = test: MAPK cell-based phosphorylation assay (ELISA or Western), PANC-1; conditions: Homo sapiens; 10 μM, PANC-1 (Table 4C)
Description: Cell lines: Tumor-derived pancreatic cancer cell line PANC-1 was purchased from ATCC and were and grown in DMEM-High Glucose supplemented with penicillin (100 U/mL), streptomycin (100 μg/mL), and 10% heat-inactivated FBS at 37° C. in a humidified incubator with 5% CO2.
Method: Cells were plated at 7500 cells/well density in a 96-well plate, allowed 3 hours to adhere to the plate, then starved in DMEM plus 0.5% FBS overnight. The small molecules to be tested were added to the cells in the final concentration of 10 μM in the presence of 0.3% DMSO for 6 hours incubation at 37° C. For IC50 value determination, serial dilutions of compounds were added to cells under the same conditions. Next, cells were stimulated with 1.5 ng/mL EGF for 15 minutes followed by cell fixation with 4% formaldehyde in PBS at room temperature for 20 minutes. Cell-direct ELISA determined phosphorylation level of MAPK.
Cell-direct ELISA: For each well, cells were permeabilized with 0.1% PBS-Triton X-100, quenched with 0.06% H2O2 in 0.1% PBS-Triton X-100, and probed with anti-phospho-MAPK antibodies (R&D Systems) followed by HRP-conjugated secondary antibody (Jackson Immunoresearch, West Grove, PA). Next, a 50 μM solution of the fluorescent substrate AmpliFlu Red (Sigma) was added and incubated at RT for 20 minutes. At the end of the incubation time, phosphorylation level of MAPK was determined by measuring fluorescence at 595 nm using SpectraMax M3 plate reader (Molecular Devices).
Cell lines: Human NSCLC cells NCI-H1975 and NCI-H1299, and tumor-derived pancreatic cancer cell lines Panc-1, MIA-PaCa-2, and BxPC3, were all purchased from American Type Culture Collection and grown in complete RPMI medium (BxPC3, NCI-H1975 and NCI-H1299) or DMEM-High Glucose (Panc1 and MIA-PaCa-2), supplemented with penicillin (100 U/mL), streptomycin (100 μg/mL), and 10% heat-inactivated FBS at 37° C. in a humidified incubator with 5% CO2.
(§1) Method: Cells were plated at 350000 cells/well density in a 12-well plate, allowed 3 hours to adhere to the plate, then starved in the appropriate medium in the presence of 0.5% FBS overnight. The small molecules to be tested were added to the cells in the final concentration of 10 μM in the presence of 0.3% DMSO for 6 hours incubation at 37° C. For IC50 value determination, serial dilutions of compounds were added to cells under the same conditions. Next, cells were stimulated with 1.5 ng/ml EGF for 15 minutes then cells were lysed with lysis buffer containing 1% Triton X-100, EDTA, and Halt™ Protease & Phosphatase Inhibitor Cocktail (Thermo Scientific). Protein concentration was assessed by BCA protein assay (Thermo Scientific). Phosphorylation level of MAPK was determined by western blot.
(§2) Western blot protocol: Equal amounts of protein (15-50 μg) were separated by SDS-PAGE and transferred to nitrocellulose membranes (Invitrogen by Thermo Fisher Scientific). The membrane was stained with Ponceau S Stain (Boston BioProducts) to verify uniform protein loading. Membranes were blocked with 10% milk and phosphorylation levels of MAPK were assessed by incubating overnight at 4° C. with anti-phospho-p44/42 (Thr202/Tyr204) antibody (Cell Signaling) followed by HRP-conjugated secondary antibody (Jackson Immunoresearch, West Grove, PA). Bands were incubated in Amersham ECL Prime Western Blotting Detection Reagent (GE Healthcare) and visualized using the ChemiDoc MP imaging system (Bio-Rad).

AKT phosphorylation = test: Western AKT cell-based phosphorylation assay, PANC-1; conditions: Homo sapiens, PANC-1 (Table 4C)
Description: Human tumor-derived pancreatic cancer cell line Panc-1 was purchased from American Type Culture Collection and grown in complete DMEM-High Glucose supplemented with penicillin (100 U/mL), streptomycin (100 μg/mL), and 10% heat-inactivated FBS at 37° C. in a humidified incubator with 5% CO2.
as §1, with “C.” for “C. For IC50 value determination, serial dilutions of compounds were added to cells under the same conditions.”, “Akt” for “MAPK”
as §2, with “Akt” for “MAPK”, “anti-phospho-Akt (Ser473)” for “anti-phospho-p44/42 (Thr202/Tyr204)”

Row | SMILES | inhibition at 10 µM (MAPK phosphorylation) [%] | inhibition at 10 µM (AKT phosphorylation) [%]
1 | COC1CCC(Nc2nc(-c3nccn3C)nc3sc(-c4cccc5[nH]ncc45)c(-c4ccccc4)c23)C1 (stereo not shown) [drawing 488] | 76 to 100 | 76 to 100
2 | CO[C@H]1CC[C@@H](Nc2nc(-c3nccn3C)nc3sc(-c4cccc5[nH]ncc45)c(-c4ccccc4)c23)C1 [drawing 489] | 76 to 100 | 0
3 | COc1cccc(-c2sc3nc(-c4nccn4C)nc(N4CCC(OC)C4)c3c2-c2ccccc2)c1F (stereo not shown) [drawing 490] | 76 to 100 | 76 to 100
4 | COc1cccc(-c2sc3nc(-c4nccn4C)nc(N[C@H]4C[C@@H](OC)C4)c3c2-c2ccccc2)c1F [drawing 491] | 76 to 100 | 76 to 100
5 | CO[C@H]1C[C@@H](Nc2nc(-c3nccn3C)nc3sc(-c4cnn(C)c4)c(-c4ccccc4)c23)C1 [drawing 492] | 76 to 100 | 26 to 50
6 | COc1cccc(-c2sc3nc(-c4nccn4C)nc(NC4CCC(OC)C4)c3c2C)c1F (stereo not shown) [drawing 493] | 76 to 100 | 0
7 | COc1cccc(-c2sc3nc(-c4nccn4C)nc(N[C@@H]4CC[C@H](OC)C4)c3c2C)c1F [drawing 494] | 76 to 100 | 0
8 | COC1CCC(Nc2nc(-c3nccn3C)nc3sc(-c4cccc5[nH]ncc45)c(C)c23)C1 (stereo not shown) [drawing 495] | 76 to 100 | 76 to 100
9 | COCCn1ccnc1-c1nc(O)c2scc(-c3ccc(OCC(C)C)nc3)c2n1 [drawing 498] | 76 to 100 | 0
10 | CC(C)COc1ccc(-c2csc3c(O)nc(-c4nccn4Cc4ccccn4)nc23)cn1 [drawing 499] | 76 to 100 | 0
11 | COc1cccc(Cn2ccnc2-c2nc(O)c3scc(-c4ccc(OCC(C)C)nc4)c3n2)c1 [drawing 500] | 76 to 100 | 0
12 | CO[C@H]1CC[C@@H](Nc2nc(-c3nccn3C)nc(C(=O)N3CCc4c(O)cccc4C3)c2C)C1 [drawing 501] | 26 to 50 | 1 to 25
13 | CO[C@H]1C[C@@H](Nc2nc(-c3ccccn3)nc3sccc23)C1 [drawing 502] | 1 to 25 | 0
14 | CO[C@H]1C[C@@H](Nc2nc(-c3nccn3C)nc3sccc23)C1 [drawing 503] | 1 to 25 | 0
15 | Cn1ccc(-c2sc3nc(-c4nccn4C)nc(O)c3c2-c2ccccc2)n1 [drawing 504] | 0 | 0
16 | CO[C@H]1C[C@@H](Nc2nc(-c3nccn3C)nc3sc(-c4ccn(C)n4)c(-c4ccccc4)c23)C1 [drawing 505] | 76 to 100 | 76 to 100
17 | CO[C@H]1C[C@H](Nc2nc(-c3nccn3C)nc3sc(-c4ccn(C)n4)c(-c4ccccc4)c23)C1 [drawing 506] | 76 to 100 | 76 to 100
18 | CN(C)CCOCCNc1nc(-c2nccn2C)nc2sc(-c3ccn(C)n3)c(-c3ccccc3)c12 [drawing 507] | 0 | 0
19 | Cn1ccc(-c2sc3nc(-c4nccn4C)nc(N[C@H]4C[C@@H](O)C4)c3c2-c2ccccc2)n1 [drawing 508] | 1 to 25 | 0
20 | CO[C@H]1C[C@@H](Nc2nc(-c3ncc[nH]3)nc3sc(-c4ccn(C)n4)c(-c4ccccc4)c23)C1 [drawing 510] | 0 | 0
